Assays:
Test in all cases: cells
MOLT-16 = format: functional, cell-based, Homo sapiens; conditions: Homo sapiens, MOLT-16;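 note: growth inhibition of human MOLT-16 cells, read out with a cell viability assay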
Description: SANGER: Inhibition of human MOLT-16 cell growth in a cell viability assay.

ES1 = format: functional, cell-based, Homo sapiens; conditions: Homo sapiens, ES1;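 note: growth inhibition of ES1 cells, read out with a cell viability assay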
Description: SANGER: Inhibition of human ES1 cell growth in a cell viability assay.

CAS-1 = format: functional, cell-based, Homo sapiens; conditions: Homo sapiens, CAS-1;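 note: growth inhibition of CAS-1 cells, measured with a cell viability assay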
Description: SANGER: Inhibition of human CAS-1 cell growth in a cell viability assay.

KP-N-YS = format: functional, cell-based, Homo sapiens; conditions: Homo sapiens, KP-N-YS;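 note: cell viability assay measuring inhibition of cell line growth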
Description: SANGER: Inhibition of human KP-N-YS cell growth in a cell viability assay.

U-87 MG = format: functional, cell-based, Homo sapiens, U-87MG ATCC; conditions: Homo sapiens, U-87 MG;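 note: growth inhibition of the cells measured with a viability assay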
Description: SANGER: Inhibition of human U-87-MG cell growth in a cell viability assay.

RH-1 = format: functional, cell-based, Homo sapiens; conditions: Homo sapiens, RH-1;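 note: growth inhibition of human RH-1 cells, read out with a cell viability assay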
Description: SANGER: Inhibition of human RH-1 cell growth in a cell viability assay.

AM-38 = format: functional, cell-based, Homo sapiens; conditions: Homo sapiens, AM-38;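 note: growth inhibition of AM-38 cells of human origin, read out by a cell viability assay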
Description: SANGER: Inhibition of human AM-38 cell growth in a cell viability assay.

LAN-6 = format: functional, cell-based, Homo sapiens; conditions: Homo sapiens, LAN-6;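 note: growth inhibition of LAN-6 cells, determined with a cell viability assay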
Description: SANGER: Inhibition of human LAN-6 cell growth in a cell viability assay.

KE-37 = format: functional, cell-based, Homo sapiens; conditions: Homo sapiens, KE-37;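 note: growth inhibition of KE-37 cells, read out with a cell viability assay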
Description: SANGER: Inhibition of human KE-37 cell growth in a cell viability assay.

KNS-81-FD = format: functional, cell-based, Homo sapiens; conditions: Homo sapiens, KNS-81-FD;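 note: growth inhibition of KNS-81-FD cells, read out with a cell viability assay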
Description: SANGER: Inhibition of human KNS-81-FD cell growth in a cell viability assay.

LNCaP-Clone-FGC = format: functional, cell-based, Homo sapiens; conditions: Homo sapiens, LNCaP-Clone-FGC
Description: SANGER: Inhibition of human LNCaP-Clone-FGC cell growth in a cell viability assay.

RPMI-8866 = format: functional, cell-based, Homo sapiens; conditions: Homo sapiens, RPMI-8866
Description: SANGER: Inhibition of human RPMI-8866 cell growth in a cell viability assay.

HCC2157 = format: functional, cell-based, Homo sapiens; conditions: Homo sapiens, HCC2157;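 note: growth inhibition of the cancer cell line, read out as cell viability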
Description: SANGER: Inhibition of human HCC2157 cell growth in a cell viability assay.

KARPAS-299 = format: functional, cell-based, Homo sapiens; conditions: Homo sapiens, KARPAS-299
Description: SANGER: Inhibition of human KARPAS-299 cell growth in a cell viability assay.

SK-N-FI = format: functional, cell-based, Homo sapiens; conditions: Homo sapiens, SK-N-FI;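 note: cell viability assay measuring growth inhibition of human SK-N-FI cells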
Description: SANGER: Inhibition of human SK-N-FI cell growth in a cell viability assay.

CCRF-CEM = format: functional, cell-based, Homo sapiens; conditions: Homo sapiens, CCRF-CEM;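 note: inhibition of CCRF-CEM cell growth, measured by a cell viability assay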
Description: SANGER: Inhibition of human CCRF-CEM cell growth in a cell viability assay.

LS-513 = format: functional, cell-based, Homo sapiens; conditions: Homo sapiens, LS-513
Description: SANGER: Inhibition of human LS-513 cell growth in a cell viability assay.

Becker = format: functional, cell-based, Homo sapiens; conditions: Homo sapiens, Becker;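 note: growth inhibition of Becker cells, read out with a cell viability assay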
Description: SANGER: Inhibition of human Becker cell growth in a cell viability assay.

EW-16 = format: functional, cell-based, Homo sapiens; conditions: Homo sapiens, EW-16;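 note: growth inhibition of human EW-16 cells, read out as cell viability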
Description: SANGER: Inhibition of human EW-16 cell growth in a cell viability assay.

C8166 = format: functional, cell-based, Homo sapiens; conditions: Homo sapiens, C8166;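 note: growth inhibition of human C8166 cells measured by a cell viability assay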
Description: SANGER: Inhibition of human C8166 cell growth in a cell viability assay.

JVM-3 = format: functional, cell-based, Homo sapiens; conditions: Homo sapiens, JVM-3;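 note: growth inhibition of human JVM-3 cells, read out with a cell viability assay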
Description: SANGER: Inhibition of human JVM-3 cell growth in a cell viability assay.

MSTO-211H = format: functional, cell-based, Homo sapiens; conditions: Homo sapiens, MSTO-211H
Description: SANGER: Inhibition of human MSTO-211H cell growth in a cell viability assay.

LAMA-84 = format: functional, cell-based, Homo sapiens; conditions: Homo sapiens, LAMA-84;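 note: growth inhibition of LAMA-84 cells, read out with a cell viability assay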
Description: SANGER: Inhibition of human LAMA-84 cell growth in a cell viability assay.

SCH = format: functional, cell-based, Homo sapiens; conditions: Homo sapiens, SCH;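 note: growth inhibition of human SCH cells, read out in a cell viability assay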
Description: SANGER: Inhibition of human SCH cell growth in a cell viability assay.

ML-2 = format: functional, cell-based, Homo sapiens; conditions: Homo sapiens, ML-2;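 note: growth inhibition of ML-2 cells, measured with a cell viability readout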
Description: SANGER: Inhibition of human ML-2 cell growth in a cell viability assay.

LB996-RCC = format: functional, cell-based, Homo sapiens; conditions: Homo sapiens, LB996-RCC
Description: SANGER: Inhibition of human LB996-RCC cell growth in a cell viability assay.

A101D = format: functional, cell-based, Homo sapiens; conditions: Homo sapiens, A101D;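 note: growth inhibition of the cell line, measured with a viability assay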
Description: SANGER: Inhibition of human A101D cell growth in a cell viability assay.

NCI-H209 = format: functional, cell-based, Homo sapiens; conditions: Homo sapiens, NCI-H209;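 note: growth inhibition of human NCI-H209 cells, measured by a cell viability assay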
Description: SANGER: Inhibition of human NCI-H209 cell growth in a cell viability assay.

IST-MEL1 = format: functional, cell-based, Homo sapiens; conditions: Homo sapiens, IST-MEL1;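 note: growth inhibition of the cell line, read out with a cell viability assay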
Description: SANGER: Inhibition of human IST-MEL1 cell growth in a cell viability assay.

ACN = format: functional, cell-based, Homo sapiens; conditions: Homo sapiens, ACN;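 note: growth inhibition of the human ACN cell line, read out via cell viability testing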
Description: SANGER: Inhibition of human ACN cell growth in a cell viability assay.

BB30-HNC = format: functional, cell-based, Homo sapiens; conditions: Homo sapiens, BB30-HNC;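 note: growth inhibition of the cultured cell line, read out by a cell viability assay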
Description: SANGER: Inhibition of human BB30-HNC cell growth in a cell viability assay.

LB831-BLC = format: functional, cell-based, Homo sapiens; conditions: Homo sapiens, LB831-BLC;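 note: growth inhibition of LB831-BLC cells, read out with a cell viability assay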
Description: SANGER: Inhibition of human LB831-BLC cell growth in a cell viability assay.

LB771-HNC = format: functional, cell-based; conditions: Homo sapiens;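 note: growth inhibition of LB771-HNC human cells, read out with a cell viability assay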
Description: SANGER: Inhibition of human LB771-HNC cell growth in a cell viability assay.

NCI-H1395 = format: functional, cell-based, Homo sapiens; conditions: Homo sapiens, NCI-H1395;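 note: cell viability assay read-out quantifying reduced proliferation of human NCI-H1395 cells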
Description: SANGER: Inhibition of human NCI-H1395 cell growth in a cell viability assay.

EW-13 = format: functional, cell-based, Homo sapiens; conditions: Homo sapiens, EW-13; read-out: IC50;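 note: growth inhibition of EW-13 cells, read out with a cell viability assay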
Description: SANGER: Inhibition of human EW-13 cell growth in a cell viability assay.

LU-134-A = format: functional, cell-based, Homo sapiens; conditions: Homo sapiens, LU-134-A
Description: SANGER: Inhibition of human LU-134-A cell growth in a cell viability assay.

KALS-1 = format: functional, cell-based, Homo sapiens; conditions: Homo sapiens, KALS-1; read-out: IC50;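 note: growth inhibition of KALS-1 cells, determined with a cell viability assay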
Description: SANGER: Inhibition of human KALS-1 cell growth in a cell viability assay.

NOMO-1 = format: functional, cell-based, Homo sapiens; conditions: Homo sapiens, NOMO-1;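 note: growth inhibition of human NOMO-1 cells measured by a cell viability assay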
Description: SANGER: Inhibition of human NOMO-1 cell growth in a cell viability assay.

SNU1 = format: functional, cell-based, Homo sapiens; conditions: Homo sapiens, SNU1;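 note: growth inhibition of human NCI-SNU-1 cells, measured with a cell viability assay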
Description: SANGER: Inhibition of human NCI-SNU-1 cell growth in a cell viability assay.

ONS-76 = format: functional, cell-based, Homo sapiens; conditions: Homo sapiens, ONS-76;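 note: growth inhibition of human ONS-76 cells, read out with a cell viability assay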
Description: SANGER: Inhibition of human ONS-76 cell growth in a cell viability assay.

NCI-H747 = format: functional, cell-based, Homo sapiens; conditions: Homo sapiens, NCI-H747;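 note: growth inhibition of human NCI-H747 cells, read out by a cell viability assay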
Description: SANGER: Inhibition of human NCI-H747 cell growth in a cell viability assay.

TE-5 = format: functional, cell-based, Homo sapiens; conditions: Homo sapiens, TE-5;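 note: inhibition of cell growth, read out by a cell viability assay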
Description: SANGER: Inhibition of human TE-5 cell growth in a cell viability assay.

SHP77 = format: functional, cell-based, Homo sapiens, SHP-77; conditions: Homo sapiens, SHP77;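 note: growth inhibition of human SHP-77 cells measured by a cell viability assay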
Description: SANGER: Inhibition of human SHP-77 cell growth in a cell viability assay.

RKO = format: functional, cell-based, Homo sapiens; conditions: Homo sapiens, RKO;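 note: growth inhibition of human RKO cells, read out with a cell viability assay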
Description: SANGER: Inhibition of human RKO cell growth in a cell viability assay.

ES4 = format: functional, cell-based, Homo sapiens; conditions: Homo sapiens, ES4;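 note: growth inhibition of human ES4 cells, read out by a cell viability assay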
Description: SANGER: Inhibition of human ES4 cell growth in a cell viability assay.

MZ1-PC = format: functional, cell-based, Homo sapiens; conditions: Homo sapiens, MZ1-PC;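 note: cell viability assay measuring growth inhibition of human MZ1-PC cells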
Description: SANGER: Inhibition of human MZ1-PC cell growth in a cell viability assay.

LC-2-ad = format: functional, cell-based, Homo sapiens; conditions: Homo sapiens, LC-2-ad;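 note: growth inhibition of human LC-2-ad cells, read out with a cell viability assay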
Description: SANGER: Inhibition of human LC-2-ad cell growth in a cell viability assay.

For `O=C1NC(=O)c2c1c(-c1ccccc1Cl)cc1[nH]c3ccc(O)cc3c21`, the IC50 (MOLT-16) was 1420 nM, the IC50 (ES1) was > 2000 nM and the IC50 (CAS-1) was > 2000 nM. The IC50 (KP-N-YS) was > 2000 nM, the IC50 (U-87 MG) was > 2000 nM and the IC50 (RH-1) was > 2000 nM. For the same compound, the IC50 (AM-38) was > 2000 nM, the IC50 (LAN-6) was > 2000 nM and the IC50 (KE-37) was 484 nM. The IC50 (KNS-81-FD) was > 2000 nM, the IC50 (LNCaP-Clone-FGC) was > 2000 nM and the IC50 (RPMI-8866) was > 2000 nM. For the same compound, the IC50 (HCC2157) was 1570 nM, the IC50 (KARPAS-299) was > 2000 nM and the IC50 (SK-N-FI) was > 2000 nM. For the same compound, the IC50 (CCRF-CEM) was > 2000 nM, the IC50 (LS-513) was > 2000 nM and the IC50 (Becker) was > 2000 nM. For the same compound, the IC50 (EW-16) was > 2000 nM, the IC50 (C8166) was > 2000 nM and the IC50 (JVM-3) was 1430 nM. The IC50 (MSTO-211H) was > 2000 nM, the IC50 (LAMA-84) was > 2000 nM and the IC50 (SCH) was > 2000 nM. The IC50 (ML-2) was > 2000 nM, the IC50 (LB996-RCC) was > 2000 nM and the IC50 (A101D) was > 2000 nM. The IC50 (NCI-H209) was 562 nM, the IC50 (IST-MEL1) was > 2000 nM and the IC50 (ACN) was > 2000 nM. The IC50 (BB30-HNC) was 1360 nM, the IC50 (LB831-BLC) was > 2000 nM and the IC50 (LB771-HNC) was > 2000 nM. The IC50 (NCI-H1395) was > 2000 nM, the IC50 (EW-13) was > 2000 nM and the IC50 (LU-134-A) was 917 nM. For the same compound, the IC50 (KALS-1) was 834 nM, the IC50 (NOMO-1) was > 2000 nM and the IC50 (SNU1) was 898 nM. For the same compound, the IC50 (ONS-76) was > 2000 nM, the IC50 (NCI-H747) was > 2000 nM and the IC50 (TE-5) was > 2000 nM. For the same compound, the IC50 (SHP77) was > 2000 nM, the IC50 (RKO) was > 2000 nM and the IC50 (ES4) was 924 nM. The IC50 (MZ1-PC) was > 2000 nM and the IC50 (LC-2-ad) was > 2000 nM.

`O=C(NCCCNc1nc(Nc2cccc(NC(=O)N3CCCC3)c2)ncc1I)c1cccs1` [BX-795] gave an IC50 (MOLT-16) of 3170 nM, an IC50 (ES1) of 1750 nM and an IC50 (CAS-1) of 3020 nM. For the same compound, the IC50 (KP-N-YS) was > 5000 nM, the IC50 (U-87 MG) was > 5000 nM and the IC50 (RH-1) was 1700 nM. The IC50 (AM-38) was > 5000 nM, the IC50 (LAN-6) was > 5000 nM and the IC50 (KE-37) was 3100 nM. The IC50 (KNS-81-FD) was > 5000 nM, the IC50 (LNCaP-Clone-FGC) was > 5000 nM and the IC50 (RPMI-8866) was > 5000 nM. The IC50 (HCC2157) was > 5000 nM, the IC50 (KARPAS-299) was > 5000 nM and the IC50 (SK-N-FI) was > 5000 nM. The IC50 (CCRF-CEM) was > 5000 nM, the IC50 (LS-513) was > 5000 nM and the IC50 (Becker) was 3010 nM. The IC50 (EW-16) was 4310 nM, the IC50 (C8166) was > 5000 nM and the IC50 (JVM-3) was 1860 nM. For the same compound, the IC50 (MSTO-211H) was > 5000 nM, the IC50 (LAMA-84) was 1770 nM and the IC50 (SCH) was > 5000 nM. The IC50 (LB996-RCC) was 4510 nM, the IC50 (A101D) was 3640 nM and the IC50 (IST-MEL1) was > 5000 nM. For the same compound, the IC50 (ACN) was > 5000 nM, the IC50 (BB30-HNC) was > 5000 nM and the IC50 (LB831-BLC) was > 5000 nM. The IC50 (LB771-HNC) was > 5000 nM, the IC50 (NCI-H1395) was > 5000 nM and the IC50 (EW-13) was > 5000 nM. For the same compound, the IC50 (LU-134-A) was 3430 nM, the IC50 (KALS-1) was 3310 nM and the IC50 (NOMO-1) was > 5000 nM. For the same compound, the IC50 (SNU1) was 4190 nM, the IC50 (ONS-76) was 4080 nM and the IC50 (NCI-H747) was > 5000 nM. For the same compound, the IC50 (TE-5) was > 5000 nM, the IC50 (SHP77) was > 5000 nM and the IC50 (RKO) was > 5000 nM. For the same compound, the IC50 (ES4) was > 5000 nM, the IC50 (MZ1-PC) was > 5000 nM and the IC50 (LC-2-ad) was 1470 nM.
